ChEMBL document CHEMBL3351803, “5Z-7-Oxozeaenol covalently binds to MAP2K7 at Cys218 in an unprecedented manner” (Bioorg Med Chem Lett, 2015)

Columns and labels:
[1] = target: T1, Dual specificity mitogen-activated protein kinase kinase 7 (Homo sapiens, UniProt O14733); assay: Inhibition of MAP2K7 (unknown origin) using unphosphorylated GST-tagged JNK1 substrate protein assessed as phosphorylation by ELISA
T1 sequence (O14733 whole entry): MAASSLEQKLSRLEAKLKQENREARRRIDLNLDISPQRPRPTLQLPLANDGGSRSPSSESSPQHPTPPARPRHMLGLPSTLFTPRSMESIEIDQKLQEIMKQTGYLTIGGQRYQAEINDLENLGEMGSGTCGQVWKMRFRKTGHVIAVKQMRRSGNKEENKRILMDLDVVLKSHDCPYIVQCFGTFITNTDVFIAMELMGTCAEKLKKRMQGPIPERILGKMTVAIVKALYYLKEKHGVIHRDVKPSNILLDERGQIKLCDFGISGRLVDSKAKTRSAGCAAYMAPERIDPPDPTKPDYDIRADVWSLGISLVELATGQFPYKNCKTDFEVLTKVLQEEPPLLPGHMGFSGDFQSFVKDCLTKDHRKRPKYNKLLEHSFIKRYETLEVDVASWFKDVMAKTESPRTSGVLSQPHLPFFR

[2] = target: Mitogen-activated protein kinase 1 (Homo sapiens, UniProt P28482); assay: Inhibition of ERK2 (unknown origin) using FITC-labeled substrate peptide assessed as phosphorylation
[3] = target: Dual specificity mitogen-activated protein kinase kinase 1 (Homo sapiens, UniProt Q02750); assay: Inhibition of MAP2K1 (unknown origin) using unphosphorylated GST-tagged ERK2 substrate protein assessed as phosphorylation by ELISA
Dual specificity mitogen-activated protein kinase kinase 1, sequence (Q02750 whole entry): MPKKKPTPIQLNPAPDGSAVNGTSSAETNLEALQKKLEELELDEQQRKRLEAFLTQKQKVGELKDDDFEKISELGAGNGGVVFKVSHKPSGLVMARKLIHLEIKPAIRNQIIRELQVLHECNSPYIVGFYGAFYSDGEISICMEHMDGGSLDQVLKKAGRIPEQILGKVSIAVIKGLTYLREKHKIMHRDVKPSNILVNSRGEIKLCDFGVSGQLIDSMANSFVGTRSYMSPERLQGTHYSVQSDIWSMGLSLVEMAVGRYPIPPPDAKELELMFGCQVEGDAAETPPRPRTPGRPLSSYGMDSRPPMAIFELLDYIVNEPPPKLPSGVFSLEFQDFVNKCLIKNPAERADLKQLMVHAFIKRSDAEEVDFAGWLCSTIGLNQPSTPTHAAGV

Mitogen-activated protein kinase 1, sequence (P28482 whole entry): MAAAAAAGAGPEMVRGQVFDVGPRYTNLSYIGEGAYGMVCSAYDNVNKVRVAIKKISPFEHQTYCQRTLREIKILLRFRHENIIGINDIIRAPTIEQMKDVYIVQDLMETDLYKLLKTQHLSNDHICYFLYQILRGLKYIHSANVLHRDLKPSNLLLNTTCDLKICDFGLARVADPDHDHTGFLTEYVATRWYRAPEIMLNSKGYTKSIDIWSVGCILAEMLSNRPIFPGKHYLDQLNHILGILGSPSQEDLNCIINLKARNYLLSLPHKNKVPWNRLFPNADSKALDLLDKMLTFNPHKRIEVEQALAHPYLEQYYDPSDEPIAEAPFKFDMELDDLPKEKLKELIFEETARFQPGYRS

COc1cc(O)c2c(c1)/C=C/C[C@H](O)[C@H](O)C(=O)/C=C\C[C@H](C)OC2=O
IC50 [1]: 1.3 µM | IC50 [2]: 6.8 µM | IC50 [3]: 0.08 µM
